The test system of one assay is P. multo 43719. Briefly: Dilution antimicrobial susceptibility test (M07-A8), P. multocida. The assay is classed as cell-based. Conditions: Pasteurella multocida; antibacterial activity by dilution susceptibility test, isolate 43719. As for the experimental part: (§1) Compounds of the present invention were tested against an assortment of Gram-negative and Gram-positive organisms using the industrial standard techniques described in Methods for Dilution Antimicrobial Susceptibility Tests for Bacteria That grow Aerobically; Approved Standard-Eighth Edition, […]-A8, Vol. 29 No. 2 Replaces […]-A7 Vol. 26 No. 2. […] When comparing the activity against these isolates with that of the marketed human health drug of cefepime (screened in the same panel), the exemplified compounds of the present invention show >200 times more selectivity over E. coli.

The next assay deals with E. coli 25922. Nature of the assay: Dilution antimicrobial susceptibility test (M07-A8), E. coli. Conditions: for MIC: Escherichia coli, antibacterial activity by dilution susceptibility test, isolate 25922; for E. coli/P. multocida: selectivity for P. multocida over E. coli (ratio of the two values). The assay is classed as cell-based, Escherichia coli. As for the experimental part:
as §1

In a further assay the test system is M. haemo 43411. Briefly: Dilution antimicrobial susceptibility test (M07-A8), M. haemolytica. The assay is classed as cell-based. Conditions: Mannheimia haemolytica; antibacterial activity by dilution susceptibility test, isolate 43411. As for the experimental part: as §1

Values after ≈ are worked out from the molar mass of the structure shown.

A word on the MIC: it is the least concentration at which growth counts as inhibited. Regarding `CO/N=C(\C(=O)N[C@@H]1C(=O)N2C(C(=O)O)=C(Cc3cc(NS(C)(=O)=O)cc(OC)c3)CS[C@H]12)c1csc(N)n1` [Example 18, (6R,7R)-7-{[(2Z)-2-(2-amino-1,3-thiazol-4-yl)-2-(methoxyimino)acetyl]amino}-3-{3-methoxy-5-[(methylsulfonyl)amino]benzyl}-8-oxo-5-thia-1-azabicyclo[4.2.0]oct-2-ene-2-carboxylic acid], the MIC with P. multo 43719 was 0.06 µg/mL (≈ 0.101 µM); against E. coli 25922 it was 16 µg/mL (≈ 26.8 µM); with M. haemo 43411 it was 0.08 µg/mL (≈ 0.134 µM). Further, the “E. coli/P. multocida” value in the assay on E. coli 25922 came to 266.
Taken in the same sequence, the figures for `CO/N=C(\C(=O)N[C@@H]1C(=O)N2C(C(=O)O)=C(Cc3cc(S(=O)(=O)NCCSC(C)=O)ccc3C)CS[C@H]12)c1csc(N)n1` [Example 20, (6R,7R)-3-(5-{[2-(acetylsulfanyl)ethyl]sulfamoyl}-2-methylbenzyl)-7-{[(2Z)-2-(2-amino-1,3-thiazol-4-yl)-2-(methoxyimino)acetyl]amino}-8-oxo-5-thia-1-azabicyclo[4.2.0]oct-2-ene-2-carboxyl is acid] were 0.25 µg/mL (≈ 0.374 µM), 64 µg/mL (≈ 95.7 µM), 0.25 µg/mL (≈ 0.374 µM) and 256.
Taken in the same sequence, the figures for `CO/N=C(\C(=O)N[C@@H]1C(=O)N2C(C(=O)O)=C(Cc3c(C)ccc(CSC(C)=O)c3C)CS[C@H]12)c1csc(N)n1` [Example 4, (6R,7R)-3-{3-[(acetylsulfanyl)methyl]-2,6-dimethylbenzyl}-7-{[(2Z)-2-(2-amino-1,3-thiazol-4-yl)-2-(methoxyimino)acetyl]amino}-8-oxo-5-thia-1-azabicyclo[4.2.0]oct-2-ene-2-carboxylic acid] were 0.25 µg/mL (≈ 0.424 µM), 32 µg/mL (≈ 54.3 µM), 0.5 µg/mL (≈ 0.848 µM) and 128.
The corresponding values for `CNS(=O)(=O)c1cccc(CC2=C(C(=O)O)N3C(=O)[C@@H](NC(=O)/C(=N\OC)c4csc(N)n4)[C@H]3SC2)c1` [Example 23, (6R,7R)-7-{[(2Z)-2-(2-amino-1,3-thiazol-4-yl)-2-(methoxyimino)acetyl]amino}-3-[3-(methylsulfamoyl)benzyl]-8-oxo-5-thia-1-azabicyclo[4.2.0]oct-2-ene-2-carboxylic acid] are 0.125 µg/mL (≈ 0.221 µM), 16 µg/mL (≈ 28.2 µM), 0.06 µg/mL (≈ 0.106 µM) and 128.
`CO/N=C(\C(=O)N[C@@H]1C(=O)N2C(C(=O)O)=C(Cc3cccc(NC(=O)CSC)c3)CS[C@H]12)c1csc(N)n1` [Example 11, (6R,7R)-7-{[(2Z)-2-(2-amino-1,3-thiazol-4-yl)-2-(methoxyimino)acetyl]amino}-3-(3-{[(methylsulfanyl)acetyl]amino}benzyl)-8-oxo-5-thia-1-azabicyclo[4.2.0]oct-2-ene-2-carboxylic acid]: the MIC against P. multo 43719 is 0.03 µg/mL (≈ 0.052 µM); against E. coli 25922, 4 µg/mL (≈ 6.94 µM); with M. haemo 43411 it was 0.03 µg/mL (≈ 0.052 µM). In addition, in the assay on E. coli 25922, the “E. coli/P. multocida” value came to 133.
For the compound `CO/N=C(\C(=O)N[C@@H]1C(=O)N2C(C(=O)O)=C(Cc3cccc(NC(=O)CSC(C)=O)c3C)CS[C@H]12)c1csc(N)n1` [Example 7, (6R,7R)-3-(3-{[(acetylsulfanyl)acetyl]amino}-2-methylbenzyl)-7-{[(2Z)-2-(2-amino-1,3-thiazol-4-yl)-2-(methoxyimino)acetyl]amino}-8-oxo-5-thia-1-azabicyclo[4.2.0]oct-2-ene-2-carboxyl is acid], the figures for the MIC with P. multo 43719, against E. coli 25922 and in the assay with M. haemo 43411 were 0.06 µg/mL (≈ 0.097 µM), 16 µg/mL (≈ 25.9 µM) and 0.06 µg/mL (≈ 0.097 µM), respectively. For the same compound, in the assay with E. coli 25922, the “E. coli/P. multocida” value is 266.
Consider `CO/N=C(\C(=O)N[C@@H]1C(=O)N2C(C(=O)O)=C(Cc3cccc(N(C)C(=O)CSC(C)=O)c3)CS[C@H]12)c1csc(N)n1` [Example 10], for which the MIC with P. multo 43719 is 0.06 µg/mL (≈ 0.097 µM); in the assay on E. coli 25922, 32 µg/mL (≈ 51.7 µM); against M. haemo 43411, 0.125 µg/mL (≈ 0.202 µM). The “E. coli/P. multocida” value in the assay with E. coli 25922 was found to be 533.
The corresponding values for `CCCN(C(=O)CSC(C)=O)c1ccc(CC2=C(C(=O)O)N3C(=O)[C@@H](NC(=O)/C(=N\OC)c4csc(N)n4)[C@H]3SC2)cc1` [Example 9] are 0.25 µg/mL (≈ 0.387 µM), 64 µg/mL (≈ 99 µM), 0.5 µg/mL (≈ 0.773 µM) and 256.
Taken in the same sequence, the figures for `CO/N=C(\C(=O)N[C@@H]1C(=O)N2C(C(=O)O)=C(Cc3cc(C)cc(NS(C)(=O)=O)c3)CS[C@H]12)c1csc(N)n1` [Example 19, (6R,7R)-7-{[(2Z)-2-(2-amino-1,3-thiazol-4-yl)-2-(methoxyimino)acetyl]amino}-3-{3-methyl-5-[(methylsulfonyl)amino]benzyl}-8-oxo-5-thia-1-azabicyclo[4.2.0]oct-2-ene-2-carboxylic acid] were 0.008 µg/mL (≈ 0.0138 µM), 8 µg/mL (≈ 13.8 µM), 8 µg/mL (≈ 13.8 µM) and 1000.
The corresponding values for `CO/N=C(\C(=O)N[C@@H]1C(=O)N2C(C(=O)O)=C(Cc3c(C)c(CO)cc(CSC(C)=O)c3C)CS[C@H]12)c1csc(N)n1` [Example 5, (6R,7R)-3-{3-[(acetylsulfanyl)methyl]-5-(hydroxymethyl)-2,6-dimethylbenzyl}-7-{[(2Z)-2-(2-amino-1,3-thiazol-4-yl)-2-(methoxyimino)acetyl]amino}-8-oxo-5-thia-1-azabicyclo[4.2.0]oct-2-ene-2-carboxylic acid] are 0.06 µg/mL (≈ 0.0968 µM), 32 µg/mL (≈ 51.6 µM), 0.125 µg/mL (≈ 0.202 µM) and 533.
Regarding `CO/N=C(\C(=O)N[C@@H]1C(=O)N2C(C(=O)O)=C(Cc3cc(NC(=O)CSC(C)=O)ccc3C)CS[C@H]12)c1csc(N)n1` [Example 8, (6R,7R)-3-(5-{[(acetylsulfanyl)acetyl]amino}-2-methylbenzyl)-7-{[(2Z)-2-(2-amino-1,3-thiazol-4-yl)-2-(methoxyimino)acetyl]amino}-8-oxo-5-thia-1-azabicyclo[4.2.0]oct-2-ene-2-carboxyl is acid], the MIC in the assay with P. multo 43719 worked out at 0.06 µg/mL (≈ 0.097 µM); in the assay on E. coli 25922, 16 µg/mL (≈ 25.9 µM); with M. haemo 43411, 0.06 µg/mL (≈ 0.097 µM). For the same compound, the “E. coli/P. multocida” value in the assay on E. coli 25922 is given as 266.
For `CNS(=O)(=O)c1cc(CC2=C(C(=O)O)N3C(=O)[C@@H](NC(=O)/C(=N\OC)c4csc(N)n4)[C@H]3SC2)cc(OC)c1` [Example 26, (6R,7R)-7-{[(2Z)-2-(2-amino-1,3-thiazol-4-yl)-2-(methoxyimino)acetyl]amino}-3-[3-methoxy-5-(methylsulfamoyl)benzyl]-8-oxo-5-thia-1-azabicyclo[4.2.0]oct-2-ene-2-carboxylic acid], the figures for the MIC with P. multo 43719, against E. coli 25922 and with M. haemo 43411 were 0.015 µg/mL (≈ 0.0251 µM), 4 µg/mL (≈ 6.7 µM) and 0.008 µg/mL (≈ 0.0134 µM), respectively. For the same compound, in the assay on E. coli 25922, the “E. coli/P. multocida” value was found to be 266.
Taken in the same sequence, the figures for `CNS(=O)(=O)c1ccc(OC)c(CC2=C(C(=O)O)N3C(=O)[C@@H](NC(=O)/C(=N\OC)c4csc(N)n4)[C@H]3SC2)c1` [Example 22, (6R,7R)-7-{[(2Z)-2-(2-amino-1,3-thiazol-4-yl)-2-(methoxyimino)acetyl]amino}-3-[2-methoxy-5-(methylsulfamoyl)benzyl]-8-oxo-5-thia-1-azabicyclo[4.2.0]oct-2-ene-2-carboxylic acid] were 0.25 µg/mL (≈ 0.419 µM), 64 µg/mL (≈ 107 µM), 0.125 µg/mL (≈ 0.209 µM) and 256.
Taken in the same sequence, the figures for `CO/N=C(\C(=O)N[C@@H]1C(=O)N2C(C(=O)O)=C(Cc3ccc(S(C)(=O)=O)cc3C)CS[C@H]12)c1csc(N)n1` [Example 28, (6R,7R)-7-{[(2Z)-2-(2-amino-1,3-thiazol-4-yl)-2-(methoxyimino)acetyl]amino}-3-[2-methyl-4-(methylsulfonyl)benzyl]-8-oxo-5-thia-1-azabicyclo[4.2.0]oct-2-ene-2-carboxylic acid] were 0.03 µg/mL (≈ 0.053 µM), 4 µg/mL (≈ 7.07 µM), 0.06 µg/mL (≈ 0.106 µM) and 133.
On to `CO/N=C(\C(=O)N[C@@H]1C(=O)N2C(C(=O)O)=C(Cc3cccc(N(C)S(C)(=O)=O)c3)CS[C@H]12)c1csc(N)n1` [Example 16, (6R,7R)-7-{[(2Z)-2-(2-amino-1,3-thiazol-4-yl)-2-(methoxyimino)acetyl]amino}-3-{3-[methyl(methylsulfonyl)amino]benzyl}-8-oxo-5-thia-1-azabicyclo[4.2.0]oct-2-ene-2-carboxylic acid], for which the MIC was 0.03 µg/mL (≈ 0.0517 µM) with P. multo 43719, 16 µg/mL (≈ 27.6 µM) against E. coli 25922 and 0.03 µg/mL (≈ 0.0517 µM) against M. haemo 43411. Moreover, in the assay on E. coli 25922, the “E. coli/P. multocida” value is recorded as 533.
Turning to `CO/N=C(\C(=O)N[C@@H]1C(=O)N2C(C(=O)O)=C(Cc3cccc(NS(C)(=O)=O)c3)CS[C@H]12)c1csc(N)n1` [Example 17, (6R,7R)-7-{[(2Z)-2-(2-amino-1,3-thiazol-4-yl)-2-(methoxyimino)acetyl]amino}-3-{3-[(methylsulfonyl)amino]benzyl}-8-oxo-5-thia-1-azabicyclo[4.2.0]oct-2-ene-2-carboxylic acid], the results for the MIC in the assay with P. multo 43719, in the assay on E. coli 25922 and with M. haemo 43411 were 0.03 µg/mL (≈ 0.0529 µM), 8 µg/mL (≈ 14.1 µM) and 0.015 µg/mL (≈ 0.0265 µM), respectively. In the assay with E. coli 25922, the “E. coli/P. multocida” value is on record as 266.
The corresponding values for `CO/N=C(\C(=O)N[C@@H]1C(=O)N2C(C(=O)O)=C(Cc3cccc(N(C(=O)CS)C(C)C)c3)CS[C@H]12)c1csc(N)n1` [Example 13, (6R,7R)-7-{[(2Z)-2-(2-amino-1,3-thiazol-4-yl)-2-(methoxyimino)acetyl]amino}-8-oxo-3-{3-[propan-2-yl(sulfanylacetyl)amino]benzyl}-5-thia-1-azabicyclo[4.2.0]oct-2-ene-2-carboxylic acid] are 0.03 µg/mL (≈ 0.0496 µM), 8 µg/mL (≈ 13.2 µM), 0.06 µg/mL (≈ 0.0992 µM) and 266.

(Values after patent US8722656B2, “Cephalosporins useful as antibacterial agents” (Zoetis LLC, priority 2011, dated 2014).)
